Source: ChEMBL document CHEMBL1201862, “PubChem BioAssay data set” (2004)
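Cultured in 96-well plates, cells were exposed to test compound for 48 hours across five concentrations. At the GI50, growth is halved.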 Active and inactive are the calls of the source. Cut-off read from the data, not from the text of the source: active = GI50 up to about 1.1 µM and inactive = higher.

How the values were obtained:
Assay in all cases: growth of human tumour cells (NCI), 48 h
OVCAR-5 = test system: OVCAR-5
MDA-MB-435 = test system: MDA-MB-435
OVCAR-8 = test system: OVCAR-8
BT-549 = test system: BT-549
Hs-578T = test system: Hs-578T
SW-620 = test system: SW-620
HCT-116 = test system: HCT-116
K562 = test system: K562
NCI-H226 = test system: NCI-H226
RPMI-8226 = test system: RPMI-8226
OVCAR-3 = test system: OVCAR-3
RXF 393 = test system: RXF 393
UACC-257 = test system: UACC-257
SK-MEL-28 = test system: SK-MEL-28
SK-OV-3 = test system: SK-OV-3
Malme-3M = test system: Malme-3M
SK-MEL-5 = test system: SK-MEL-5
MDA-N = test system: MDA-N
SR = test system: SR
MOLT-4 = test system: MOLT-4
HCC 2998 = test system: HCC 2998
PC-3 = test system: PC-3
SN12C = test system: SN12C
HOP-92 = test system: HOP-92
DU-145 = test system: DU-145
IGROV-1 = test system: IGROV-1
A498 = test system: A498
SF-268 = test system: SF-268
A549 = test system: A549
NCI-H460 = test system: NCI-H460
MCF7 = test system: MCF7
SF-295 = test system: SF-295
SK-MEL-2 = test system: SK-MEL-2
UACC-62 = test system: UACC-62
ACHN = test system: ACHN
U-251 = test system: U-251
EKVX = test system: EKVX
OVCAR-4 = test system: OVCAR-4
KM12 = test system: KM12
SNB-19 = test system: SNB-19
HCT-15 = test system: HCT-15
NCI-H23 = test system: NCI-H23
COLO 205 = test system: COLO 205
M14 = test system: M14
NCI/ADR-RES = test system: NCI/ADR-RES
CCRF-CEM = test system: CCRF-CEM
HL-60 = test system: HL-60
SF-539 = test system: SF-539
786-0 = test system: 786-0
TK-10 = test system: TK-10
HT-29 = test system: HT-29
NCI-H522 = test system: NCI-H522
SNB-75 = test system: SNB-75
CAKI-1 = test system: CAKI-1
MDA-MB-231 = test system: MDA-MB-231
HOP-62 = test system: HOP-62
T47D = test system: T47D
LOX IMVI = test system: LOX IMVI
UO-31 = test system: UO-31

Structure (SMILES): C=C1C(=O)OC2CC(C)C(/C=C/C(C)=O)=CCC12 (stereo unspecified)
- GI50 (OVCAR-5): > 100 µM (inactive)
- GI50 (MDA-MB-435): > 100 µM (inactive)
- GI50 (OVCAR-8): > 100 µM (inactive)
- GI50 (BT-549): > 100 µM (inactive)
- GI50 (Hs-578T): > 100 µM (inactive)
- GI50 (SW-620): 61.8 µM (inactive)
- GI50 (HCT-116): 43.3 µM (inactive)
- GI50 (K562): 58.7 µM (inactive)
- GI50 (NCI-H226): > 100 µM (inactive)
- GI50 (RPMI-8226): 86.1 µM (inactive)
- GI50 (OVCAR-3): > 100 µM (inactive)
- GI50 (RXF 393): > 100 µM (inactive)
- GI50 (UACC-257): > 100 µM (inactive)
- GI50 (SK-MEL-28): > 100 µM (inactive)
- GI50 (SK-OV-3): > 100 µM (inactive)
- GI50 (Malme-3M): 10.7 µM (inactive)
- GI50 (SK-MEL-5): 71.8 µM (inactive)
- GI50 (MDA-N): > 100 µM (inactive)
- GI50 (SR): 57.9 µM (inactive)
- GI50 (MOLT-4): 83 µM (inactive)
- GI50 (HCC 2998): > 100 µM (inactive)
- GI50 (PC-3): > 100 µM (inactive)
- GI50 (SN12C): > 100 µM (inactive)
- GI50 (HOP-92): > 100 µM (inactive)
- GI50 (DU-145): > 100 µM (inactive)
- GI50 (IGROV-1): > 100 µM (inactive)
- GI50 (A498): > 100 µM (inactive)
- GI50 (SF-268): > 100 µM (inactive)
- GI50 (A549): > 100 µM (inactive)
- GI50 (NCI-H460): > 100 µM (inactive)
- GI50 (MCF7): > 100 µM (inactive)
- GI50 (SF-295): > 100 µM (inactive)
- GI50 (SK-MEL-2): > 100 µM (inactive)
- GI50 (UACC-62): > 100 µM (inactive)
- GI50 (ACHN): > 100 µM (inactive)
- GI50 (U-251): > 100 µM (inactive)
- GI50 (EKVX): > 100 µM (inactive)
- GI50 (OVCAR-4): > 100 µM (inactive)
- GI50 (KM12): > 100 µM (inactive)
- GI50 (SNB-19): > 100 µM (inactive)
- GI50 (HCT-15): > 100 µM
- GI50 (NCI-H23): > 100 µM (inactive)
- GI50 (COLO 205): 90.6 µM (inactive)
- GI50 (M14): > 100 µM (inactive)
- GI50 (NCI/ADR-RES): > 100 µM (inactive)
- GI50 (CCRF-CEM): 40 µM (inactive)
- GI50 (HL-60): 33.1 µM (inactive)
- GI50 (SF-539): > 100 µM (inactive)
- GI50 (786-0): 26.4 µM (inactive)
- GI50 (TK-10): > 100 µM (inactive)
- GI50 (HT-29): > 100 µM (inactive)
- GI50 (NCI-H522): 29.8 µM (inactive)
- GI50 (SNB-75): 2.99 µM (inactive)
- GI50 (CAKI-1): > 100 µM (inactive)
- GI50 (MDA-MB-231): > 100 µM (inactive)
- GI50 (HOP-62): > 100 µM (inactive)
- GI50 (T47D): > 100 µM (inactive)
- GI50 (LOX IMVI): > 100 µM (inactive)

Structure (SMILES): CCSc1nnc(Sc2c3ccccc3nc3ccccc23)s1
- GI50 (OVCAR-5): 20 µM (inactive)
- GI50 (MDA-MB-435): 9.84 µM (inactive)
- GI50 (OVCAR-8): 20.3 µM (inactive)
- GI50 (BT-549): 17.6 µM (inactive)
- GI50 (Hs-578T): 32.7 µM (inactive)
- GI50 (SW-620): 5.45 µM (inactive)
- GI50 (HCT-116): 7.41 µM (inactive)
- GI50 (K562): 3.8 µM (inactive)
- GI50 (NCI-H226): 33.7 µM (inactive)
- GI50 (RPMI-8226): 3.91 µM (inactive)
- GI50 (OVCAR-3): 13.1 µM (inactive)
- GI50 (RXF 393): 17.2 µM (inactive)
- GI50 (UACC-257): 7.98 µM (inactive)
- GI50 (SK-MEL-28): 17.5 µM (inactive)
- GI50 (SK-OV-3): > 78 µM (inactive)
- GI50 (Malme-3M): 7.01 µM (inactive)
- GI50 (SK-MEL-5): 15.6 µM (inactive)
- GI50 (MDA-N): 6.68 µM (inactive)
- GI50 (SR): 3.19 µM (inactive)
- GI50 (MOLT-4): 2.63 µM (inactive)
- GI50 (HCC 2998): 11.8 µM (inactive)
- GI50 (PC-3): 20.3 µM (inactive)
- GI50 (SN12C): 15.2 µM (inactive)
- GI50 (HOP-92): 11.7 µM (inactive)
- GI50 (UO-31): 10.7 µM (inactive)
- GI50 (DU-145): 15.2 µM (inactive)
- GI50 (IGROV-1): 17.3 µM (inactive)
- GI50 (A498): 23.8 µM (inactive)
- GI50 (SF-268): 19.3 µM (inactive)
- GI50 (A549): > 60.7 µM (inactive)
- GI50 (NCI-H460): 19.6 µM (inactive)
- GI50 (MCF7): 3.92 µM (inactive)
- GI50 (SF-295): 99.3 µM (inactive)
- GI50 (SK-MEL-2): 22.3 µM (inactive)
- GI50 (UACC-62): 15 µM (inactive)
- GI50 (ACHN): 5.19 µM (inactive)
- GI50 (U-251): 23.3 µM (inactive)
- GI50 (EKVX): 11.6 µM (inactive)
- GI50 (OVCAR-4): 16.9 µM (inactive)
- GI50 (KM12): 24.8 µM (inactive)
- GI50 (SNB-19): 44.2 µM (inactive)
- GI50 (HCT-15): 3.37 µM
- GI50 (NCI-H23): 20.2 µM (inactive)
- GI50 (COLO 205): 2.78 µM (inactive)
- GI50 (M14): 11.5 µM (inactive)
- GI50 (NCI/ADR-RES): 19.7 µM (inactive)
- GI50 (CCRF-CEM): 2.64 µM (inactive)
- GI50 (HL-60): 0.692 µM (active)
- GI50 (SF-539): 7.94 µM (inactive)
- GI50 (786-0): 2.84 µM (inactive)
- GI50 (TK-10): 6.18 µM (inactive)
- GI50 (HT-29): 7.67 µM (inactive)
- GI50 (NCI-H522): 2.37 µM (inactive)
- GI50 (SNB-75): 35.3 µM (inactive)
- GI50 (CAKI-1): 5.33 µM (inactive)
- GI50 (MDA-MB-231): 18.8 µM (inactive)
- GI50 (HOP-62): > 58.6 µM (inactive)
- GI50 (T47D): 4.22 µM (inactive)
- GI50 (LOX IMVI): 6.7 µM (inactive)

Structure (SMILES): O=[N+]([O-])c1ccc2c(c1)Nc1c3ccccc3nc3cccc-2c13
- GI50 (OVCAR-5): 6.93 µM (inactive)
- GI50 (MDA-MB-435): 4.23 µM (inactive)
- GI50 (OVCAR-8): 1.17 µM (inactive)
- GI50 (BT-549): 16.3 µM (inactive)
- GI50 (Hs-578T): 6.53 µM (inactive)
- GI50 (SW-620): 2.13 µM (inactive)
- GI50 (HCT-116): 5.38 µM (inactive)
- GI50 (K562): 2.1 µM (inactive)
- GI50 (NCI-H226): 25.9 µM (inactive)
- GI50 (RPMI-8226): 4.49 µM (inactive)
- GI50 (OVCAR-3): 0.689 µM (active)
- GI50 (RXF 393): 8.39 µM (inactive)
- GI50 (UACC-257): 16.9 µM (inactive)
- GI50 (SK-MEL-28): 6.52 µM (inactive)
- GI50 (SK-OV-3): 2.04 µM (inactive)
- GI50 (Malme-3M): 2 µM (inactive)
- GI50 (SK-MEL-5): 0.883 µM (active)
- GI50 (MDA-N): 3.62 µM (inactive)
- GI50 (SR): 0.733 µM (active)
- GI50 (MOLT-4): 0.895 µM (active)
- GI50 (HCC 2998): 0.183 µM (active)
- GI50 (PC-3): 2.35 µM (inactive)
- GI50 (SN12C): 11.3 µM (inactive)
- GI50 (HOP-92): 4.73 µM (inactive)
- GI50 (UO-31): 5.65 µM (inactive)
- GI50 (DU-145): 0.593 µM (active)
- GI50 (IGROV-1): 1.47 µM (inactive)
- GI50 (A498): 34.5 µM (inactive)
- GI50 (SF-268): 8.61 µM (inactive)
- GI50 (A549): 2.16 µM (inactive)
- GI50 (NCI-H460): 0.789 µM (active)
- GI50 (MCF7): 0.219 µM (active)
- GI50 (SF-295): 0.482 µM (active)
- GI50 (SK-MEL-2): 15 µM (inactive)
- GI50 (UACC-62): 4.16 µM (inactive)
- GI50 (ACHN): 18.1 µM (inactive)
- GI50 (U-251): 3.18 µM (inactive)
- GI50 (EKVX): 11.6 µM (inactive)
- GI50 (OVCAR-4): 1.43 µM (inactive)
- GI50 (KM12): 3.57 µM (inactive)
- GI50 (SNB-19): 17.3 µM (inactive)
- GI50 (HCT-15): 3.56 µM
- GI50 (NCI-H23): 4.85 µM (inactive)
- GI50 (COLO 205): 2.68 µM (inactive)
- GI50 (M14): 3.21 µM (inactive)
- GI50 (NCI/ADR-RES): 2.82 µM (inactive)
- GI50 (CCRF-CEM): 1.84 µM (inactive)
- GI50 (HL-60): 1.32 µM (inactive)
- GI50 (SF-539): 12.1 µM (inactive)
- GI50 (786-0): 1.02 µM (active)
- GI50 (TK-10): 5.38 µM (inactive)
- GI50 (HT-29): 3.1 µM (inactive)
- GI50 (NCI-H522): 3.44 µM (inactive)
- GI50 (SNB-75): 3.61 µM (inactive)
- GI50 (CAKI-1): 4.67 µM (inactive)
- GI50 (MDA-MB-231): 2.41 µM (inactive)
- GI50 (HOP-62): 2.07 µM (inactive)
- GI50 (T47D): 3.95 µM (inactive)
- GI50 (LOX IMVI): 1.93 µM (inactive)
